Legend:
Hermetia illucens larvae [1] = assay: Maggot Inhibitory Assay (MIA) with solutions of insecticide or lidocaine infused into wet chicken feed (Example 3); assay type: in vivo; conditions: for insecticide or repellant activity as demonstrated by weight loss and maggot death: solution or neat liquid mixed into wet chicken feed, 5 larvae per dish, ~30 °C
From the text: Determination of anti-myiasis activity by solutions of insecticide, or a lidocaine solution, was studied by Maggot Inhibitory Assay (MIA).
Seven (7) Test and Control Articles: Wet chicken feed (positive control), Tetrahydrafuran infused feed (THF; carrier control), Isopropyl Myristate infused feed (IPM; permeation enhancer control), Lidocaine solution infused feed (LD), Ivermectin infused feed (Iver), Imidacloprid infused feed (IMI), Spinosad infused feed (Spin).
One (1) test organism: Hermetia illucens larvae, “medium size” 3rd instar feeding (crop-full), mean weight 45-60 mg.
• Contact Time: 7 Days • Contact Temperature: 30±2° C. Test Method Overview: See FIG. 10 for Diagrammatic Overview.
Fresh wet chicken feed (WCF) and Hermetia illucens larvae (3rd instar feeding (crop-full) mean weight 45-60 mg) were obtained within 48 hours of the start of the testing. A small (60 mm diameter) petri dish served as the test container for each replicate. Solutions of the test substances were added onto the fresh WCF, and then the WCF with solution was placed into the center of the container and weighed. The POS control utilized an approximately similar-sized sample of fresh WCF, without any solution being added. Five (5) larvae were placed on each test and control article infused the fresh WCF. The lid was placed on the petri dish and the dish was wrapped in parafilm. The test and control containers were kept in an incubator at ˜30° C. temperature, in the dark. Larvae were observed daily for up to two (2) weeks, noting motility and pupation.
A portion of the solution was retained in a sealed glass vial for possible QA/QC. The WCF sample with solution added was mixed thoroughly and left in a fume hood for up to 72 hours to let THE evaporate off.
Test and control containers had about 2.0 g of test solution infused WCF placed into the center of the wetted filter paper.
Each test and control article were prepared in the individual 60 mm petri dishes in triplicate as described, >48 hours before study start. Five (5) larvae were weighed as a group and recorded for each test and control article. The lid was placed on the petri fish and this was wrapped in parafilm, as described. The test and control containers were kept in the incubator at temperature ˜30° C. in the dark. Larvae are observed daily up to two weeks, noting observations on food consumption, weight and pupation.
The weight of the 5 larvae in each assay replicate were determined and recorded by: (a) removing the lid and weighing the container without the lid (larvae+WCF+container); and (b) taring the scale and gently placing the 5 larvae into the lid and recording the total weight.
The results are shown in FIG. 11 as weight gain per maggot over time. At time 0, 5 maggots were placed into each of 3 pre-weighed petri dishes WCF mixed with the following, as described: nothing (OTS), Tetrahydrofuran (THF), Isopropyl Myristate (IPM), Lidocaine (LD), Ivermectin (Iver), Imidacloprid (IMI), or Spinosad (Spin). At each indicated time point, the weight of maggots was recorded and divided by the number of maggots per dish to calculate the weight per maggot. The weight per maggot at time 0 was then subtracted from that at each time point to calculate the weight gain per maggot. Bars represent the mean±standard deviation of 3 replicate petri dishes. In FIG. 11, statistical significance for each solution, relative to the OTS control, was determined using a repeated measures mixed effects model and each petri dish as the experimental unit (fixed effects were time, solution, and time×solution interaction; random effects were individual petri dishes and residuals); p-values were corrected for multiple comparisons with Dunnett's test. *, p<0.05; **, p<0.01; ***, p<0.001; ****, p<0.0001.

Hermetia illucens larvae [2] = assay: Maggot Inhibitory Assay (MIA) with ivermectin and lidocaine bands, unused or previously affixed to Holstein calves (Example 4); assay type: in vivo; conditions: positive control solution (1.31 g in 2.35 g THF) in wet chicken feed
From the text: Evaluation of duration of efficacy of anti-myiasis activity by elastomeric bands loaded/infused with insecticide, with or without an active agent for the topical treatment of pain, was studied via ex vivo tissue and band collection and using Maggot Inhibitory Assay (MIA).
Experimental goal: The aim of this experiment was to assess the long-term function of elastomeric bands infused with insecticide, with or without lidocaine, to inhibit the growth of larvae using the novel MIA test disclosed herein, by evaluating the function of ex vivo tissue biopsies taken from scrotal tissue and drug-infused elastomeric bands which were previously placed on Holstein calves for various time periods (3, 7, 14, 21 and 30 days). The protocol used and presented here is based on published literature (Kotze et al., (2022) “Resistance to dicyclanil and imidacloprid in the sheep blowfly, Lucilia cuprina, in Australia”, Pest Manag Sci, 78:4195-4206).
Ivermectin control: A solution of ivermectin was prepared as a positive control (1.31 g ivermectin into 2.35 g of THF). (n=3)
Exposed ILLB: Elastomeric bands infused with ivermectin and lidocaine that were affixed to scrotal sites and removed at each time point. (n=3×5 experiments=15) […]
Animals were randomly allocated to the study. […] Animal IDs and treatment codes were recorded. […] Animals were monitored for any adverse effects. […]

Row | Compound | insecticide or repellant activity as demonstrated by weight loss and maggot death (Hermetia illucens larvae [1]) | activity as an insecticide compared with commercial insecticides (ivermectin, imidacloprid, spinosad) (Hermetia illucens larvae [1]; lidocaine in solution and infused into an elastomeric band) | maggot weight change (Hermetia illucens larvae [2])
1 | C1CCOC1 [Tetrahydrofuran] | no insecticide or repellant activity | – | –
2 | O=[N+]([O-])NC1=NCCN1Cc1ccc(Cl)nc1 [imidacloprid] | effective insecticide or repellant activity | – | –
3 | CCCCCCCCCCCCCC(=O)OC(C)C [isopropyl myristate] | no insecticide or repellant activity | – | –
4 | CCN(CC)CC(=O)Nc1c(C)cccc1C [lidocaine solution, lidocaine] | effective insecticide or repellant activity | equivalent to commercial insecticides | –
5 | ivermectin | effective insecticide or repellant activity | – | a decline or no weight gain
6 | spinosad | effective insecticide or repellant activity | – | –

Reference: patent US12465472B2, “Methods of insect control for an animal, products thereof and methods for their preparation” (priority 2023, dated 2025)
